Reference: ChEMBL document CHEMBL4828735, “Discovery of N-((3S,4S)-4-(3,4-Difluorophenyl)piperidin-3-yl)-2-fluoro-4-(1-methyl-1H-pyrazol-5-yl)benzamide (Hu7691), a Potent and Selective Akt Inhibitor That Enables Decrease of Cutaneous Toxicity” (J Med Chem, 2021)
One block for each compound: values may come before it. Activity calls are given as the source filed them. The calls are words filed in the database; no cut-off is given here.

Legend:
KHOS/NP [1] = assay: Antiproliferative activity against human KHOS cells assessed as inhibition of cell growth incubated for 72 hrs by SRB assay; format: functional, cell-based
[2] = target: RAC-alpha serine/threonine-protein kinase (Homo sapiens, UniProt P31749); assay: Inhibition of N-terminal GST-tagged human AKT1 (104 to 408 residues) expressed in baculovirus infected Sf21 cells incubated for 1 hr in presence of ATP by mobility shift assay
RAC-alpha serine/threonine-protein kinase, sequence (P31749 whole entry, the tested form may be a part): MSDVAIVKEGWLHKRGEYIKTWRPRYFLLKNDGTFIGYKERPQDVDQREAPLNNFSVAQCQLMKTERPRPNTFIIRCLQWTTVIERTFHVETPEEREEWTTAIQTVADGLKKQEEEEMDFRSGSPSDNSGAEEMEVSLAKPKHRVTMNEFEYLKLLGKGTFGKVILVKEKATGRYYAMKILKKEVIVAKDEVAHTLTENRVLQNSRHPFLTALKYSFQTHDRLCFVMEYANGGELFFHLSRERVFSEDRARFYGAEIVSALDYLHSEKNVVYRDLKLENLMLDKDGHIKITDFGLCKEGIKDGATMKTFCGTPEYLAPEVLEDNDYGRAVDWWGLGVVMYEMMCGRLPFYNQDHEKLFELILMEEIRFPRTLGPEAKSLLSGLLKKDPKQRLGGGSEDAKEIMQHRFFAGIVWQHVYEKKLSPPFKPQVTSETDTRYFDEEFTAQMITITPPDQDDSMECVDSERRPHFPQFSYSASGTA

hERG (KCNH2) = hERG (KCNH2) (Homo sapiens, UniProt Q12809); assay: Inhibition of human ERG expressed in HEK293 cells at 3 uM by whole cell patch clamp method relative to control; format: cell-based; settings: HEK293 cells expressing hERG
hERG (KCNH2), sequence (Q12809 whole entry): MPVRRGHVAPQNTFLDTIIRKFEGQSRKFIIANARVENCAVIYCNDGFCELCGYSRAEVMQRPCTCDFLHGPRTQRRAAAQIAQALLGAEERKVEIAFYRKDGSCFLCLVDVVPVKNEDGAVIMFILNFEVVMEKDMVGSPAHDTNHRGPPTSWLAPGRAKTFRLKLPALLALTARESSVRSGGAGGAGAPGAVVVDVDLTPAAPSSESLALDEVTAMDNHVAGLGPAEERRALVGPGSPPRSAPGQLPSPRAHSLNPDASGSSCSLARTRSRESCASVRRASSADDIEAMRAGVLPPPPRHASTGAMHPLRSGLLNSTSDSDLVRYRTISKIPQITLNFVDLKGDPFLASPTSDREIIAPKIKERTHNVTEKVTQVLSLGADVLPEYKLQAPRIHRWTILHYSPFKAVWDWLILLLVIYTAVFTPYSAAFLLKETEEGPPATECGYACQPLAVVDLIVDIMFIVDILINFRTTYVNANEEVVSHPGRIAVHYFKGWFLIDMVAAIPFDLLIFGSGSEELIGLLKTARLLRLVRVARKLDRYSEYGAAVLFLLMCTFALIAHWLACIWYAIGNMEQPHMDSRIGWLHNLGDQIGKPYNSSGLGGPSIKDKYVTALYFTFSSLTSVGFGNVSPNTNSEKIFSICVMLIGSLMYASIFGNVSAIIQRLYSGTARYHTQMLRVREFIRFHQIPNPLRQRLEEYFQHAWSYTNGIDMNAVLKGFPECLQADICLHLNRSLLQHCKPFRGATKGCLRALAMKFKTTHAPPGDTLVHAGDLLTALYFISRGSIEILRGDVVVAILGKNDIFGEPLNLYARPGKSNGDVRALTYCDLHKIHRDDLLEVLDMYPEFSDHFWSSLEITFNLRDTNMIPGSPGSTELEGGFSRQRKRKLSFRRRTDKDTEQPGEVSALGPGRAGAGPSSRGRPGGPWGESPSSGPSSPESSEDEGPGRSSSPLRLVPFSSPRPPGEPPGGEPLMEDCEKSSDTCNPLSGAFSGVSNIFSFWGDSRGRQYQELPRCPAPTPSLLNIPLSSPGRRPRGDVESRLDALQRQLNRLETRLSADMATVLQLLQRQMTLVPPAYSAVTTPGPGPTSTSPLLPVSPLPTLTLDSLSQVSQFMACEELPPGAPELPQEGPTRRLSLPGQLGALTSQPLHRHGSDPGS

786-0 [3] = assay: Antiproliferative activity against human 786-0 cells assessed as inhibition of cell growth incubated for 72 hrs by SRB assay; format: functional, cell-based; settings: 786-0, 72 h
HGC-27 = assay: Antiproliferative activity against human HGC-27 cells assessed as inhibition of cell growth incubated for 72 hrs by SRB assay; format: functional, cell-based; settings: HGC-27, 72 h
U-251 = assay: Antiproliferative activity against human U251 cells assessed as inhibition of cell growth incubated for 72 hrs by SRB method; format: functional, cell-based; settings: U-251, 72 h
U-87 MG = assay: Antiproliferative activity against human U-87MG cells assessed as inhibition of cell growth incubated for 72 hrs by SRB method; format: functional, cell-based, U-87MG ATCC
HaCaT [4] = assay: Induction of apoptosis in human HaCaT cells assessed as late apoptotic cells at 9 uM by flow cytometry analysis (reference value: 17.13%); format: functional
HaCaT [5] = assay: Induction of apoptosis in human HaCaT cells transfected with shAKT3 assessed as necrotic cells at 9 uM by flow cytometry analysis (reference value: 3.84%); format: functional
HaCaT [6] = assay: Induction of apoptosis in human HaCaT cells transfected with shAKT2 assessed as late apoptotic cells at 9 uM by flow cytometry analysis (reference value: 16.77%); format: functional
786-0 [7] = assay: Antiproliferative activity against human 786-0 cells assessed as inhibition of cell growth incubated for 72 hrs by SRB method; format: functional, cell-based; settings: 786-0, 72 h
HaCaT [8] = assay: Induction of apoptosis in human HaCaT cells assessed as viable cells at 9 uM by flow cytometry analysis (reference value: 79.16%); format: functional; settings: read-out: Activity
SK-OV-3 = assay: Antiproliferative activity against human SK-OV-3 cells assessed as inhibition of cell growth incubated for 72 hrs by SRB method; format: functional, cell-based; settings: SK-OV-3, 72 h
HT-29 = assay: Antiproliferative activity against human HT-29 cells assessed as inhibition of cell growth incubated for 72 hrs by SRB method; format: functional, cell-based; settings: HT-29, 72 h
HaCaT [9] = assay: Induction of apoptosis in human HaCaT cells transfected with shAKT1 assessed as necrotic cells at 9 uM by flow cytometry analysis (reference value: 3.82%); format: functional
HaCaT [10] = assay: Induction of apoptosis in human HaCaT cells transfected with shAKT3 assessed as late apoptotic cells at 9 uM by flow cytometry analysis (reference value: 17.55%); format: functional
[11] = Antiproliferative activity against human 95-D cells assessed as inhibition of cell growth incubated for 72 hrs by SRB method; format: functional, cell-based
HaCaT [12] = assay: Induction of apoptosis in human HaCaT cells transfected with shAKT2 assessed as viable cells at 9 uM by flow cytometry analysis (reference value: 79.95%); format: functional; settings: read-out: Activity
HaCaT [13] = assay: Induction of apoptosis in human HaCaT cells assessed as early apoptotic cells at 9 uM by flow cytometry analysis (reference value: 0.54%); format: functional
NCI-H1975 = assay: Antiproliferative activity against human NCI-H1975 cells assessed as inhibition of cell growth incubated for 72 hrs by SRB method; format: functional, cell-based; settings: NCI-H1975, 72 h
LNCaP = assay: Antiproliferative activity against human LNCaP cells assessed as inhibition of cell growth incubated for 72 hrs by SRB method; format: functional, cell-based
HaCaT [14] = assay: Induction of apoptosis in human HaCaT cells transfected with shAKT3 assessed as viable cells at 9 uM by flow cytometry analysis (reference value: 78.17%); format: functional; settings: read-out: Activity
HaCaT [15] = assay: Induction of apoptosis in human HaCaT cells transfected with shAKT2 assessed as late apoptotic cells at 9 uM by flow cytometry analysis (reference value: 2.90%); format: functional
HaCaT [16] = assay: Induction of apoptosis in human HaCaT cells transfected with shAKT2 assessed as early apoptotic cells at 9 uM by flow cytometry analysis (reference value: 0.38%); format: functional
MDA-MB-231 = assay: Antiproliferative activity against human MDA-MB-231 cells assessed as inhibition of cell growth incubated for 72 hrs by SRB method; format: functional, cell-based; settings: MDA-MB-231, 72 h
PC-3 = assay: Antiproliferative activity against human PC3 cells assessed as inhibition of cell growth incubated for 72 hrs by SRB method; format: functional, cell-based; settings: PC-3, 72 h
KHOS/NP [17] = assay: Antiproliferative activity against human KHOS cells assessed as inhibition of cell growth incubated for 72 hrs by SRB method; format: functional, cell-based
OS-RC-2 = assay: Antiproliferative activity against human OS-RC-2 cells assessed as inhibition of cell growth incubated for 72 hrs by SRB method; format: functional, cell-based; settings: OS-RC-2, 72 h
HaCaT [18] = assay: Induction of apoptosis in human HaCaT cells transfected with shAKT3 assessed as early apoptotic cells at 9 uM by flow cytometry analysis (reference value: 0.44%); format: functional
HaCaT [19] = assay: Induction of apoptosis in human HaCaT cells transfected with shAKT1 assessed as viable cells at 9 uM by flow cytometry analysis (reference value: 77.12%); format: functional; settings: read-out: Activity
SMMC-7721 = assay: Antiproliferative activity against human SMMC-7721 cells assessed as inhibition of cell growth incubated for 72 hrs by SRB method; format: functional, cell-based; settings: SMMC-7721, 72 h
HaCaT [20] = assay: Antiproliferative activity against human HaCaT cells assessed as inhibition of cell growth incubated for 72 hrs by SRB assay; format: cell-based
769-P = assay: Antiproliferative activity against human 769-P cells assessed as inhibition of cell growth incubated for 72 hrs by SRB method; format: functional, cell-based
Bel-7402 = assay: Antiproliferative activity against human Bel-7402 cells assessed as inhibition of cell growth incubated for 72 hrs by SRB method; format: functional, cell-based; settings: Bel-7402, 72 h
786-0 [21] = assay: Antitumor activity against human 786-0 cells xenografted in dosed BALB/c nude mouse assessed as tumor growth inhibition at 50 mg/kg, ig administered once daily for 22 days; format: functional; settings: 786-0, po, 528 h, time 22 day, read-out: TGI
A549 = assay: Antiproliferative activity against human A549 cells assessed as inhibition of cell growth incubated for 72 hrs by SRB method; format: functional, cell-based; settings: A549, 72 h
HaCaT [22] = assay: Induction of apoptosis in human HaCaT cells assessed as necrotic cells at 9 uM by flow cytometry analysis (reference value: 3.17%); format: functional
OVCAR-8 = assay: Antiproliferative activity against human OVCAR-8 cells assessed as inhibition of cell growth incubated for 72 hrs by SRB method; format: functional, cell-based; settings: OVCAR-8, 72 h
HepG2 = assay: Antiproliferative activity against human HepG2 cells assessed as inhibition of cell growth incubated for 72 hrs by SRB method; format: functional, cell-based; settings: HepG2, 72 h
HaCaT [23] = assay: Induction of apoptosis in human HaCaT cells transfected with shAKT1 assessed as late apoptotic cells at 9 uM by flow cytometry analysis (reference value: 18.52%); format: functional
HaCaT [24] = assay: Induction of apoptosis in human HaCaT cells transfected with shAKT1 assessed as early apoptotic cells at 9 uM by flow cytometry analysis (reference value: 0.54%); format: functional
KHOS/NP [25] = assay: Antitumor activity against human KHOS cells xenografted in dosed BALB/c nude mouse assessed as tumor growth inhibition at 50 mg/kg, ig administered once daily for 22 days; format: functional; settings: po, 528 h, time 22 day, read-out: TGI
HaCaT [26] = assay: Induction of apoptosis in human HaCaT cells transfected with shAKT2 assessed as decrease in cleaved caspase 3 level by Western blot analysis; format: functional, cell-based

Structure (SMILES): Cn1nccc1-c1cc(F)c(C(=O)N[C@@H]2CNCC[C@H]2c2ccc(F)cc2)cc1F
IC50 (KHOS/NP [1]): 17.6 µM | IC50 [2]: 0.0353 µM | IC50 (786-0 [3]): 7.81 µM | IC50 (HGC-27): 3.36 µM

Structure (SMILES): Cn1ncc(Br)c1-c1cc(F)c(C(=O)N[C@@H]2CNCC[C@H]2c2ccc(F)c(F)c2)cc1F
IC50 (KHOS/NP [1]): 3.06 µM | IC50 [2]: 0.0662 µM | IC50 (786-0 [3]): 1.9 µM | IC50 (HGC-27): 1.79 µM

Structure (SMILES): Cn1nccc1-c1ccc(C(=O)N[C@@H]2CNCC[C@H]2c2ccc(F)c(F)c2)cc1
IC50 (HaCaT [20]): 5.44 µM

Structure (SMILES): Cn1nccc1-c1ccc(C(=O)N[C@@H]2CNCC[C@H]2c2ccc(F)c(F)c2)c(Cl)c1
IC50 (KHOS/NP [1]): 11.7 µM | IC50 [2]: 0.024 µM | IC50 (786-0 [3]): 4.07 µM | IC50 (HGC-27): 1.4 µM

Structure (SMILES): O=C(N[C@@H]1CNCC[C@H]1c1ccc(F)c(F)c1)c1ccc(-c2ccn[nH]2)cc1F
IC50 (KHOS/NP [1]): 10.7 µM | IC50 [2]: 0.083 µM | IC50 (786-0 [3]): 7.15 µM | IC50 (HGC-27): 4.34 µM

Structure (SMILES): Cn1ncc(Cl)c1-c1cc(F)c(C(=O)N[C@@H]2CNCC[C@H]2c2ccc(F)c(F)c2)cc1F
IC50 [2]: 0.0489 µM

Structure (SMILES): Cn1ncc(Cl)c1-c1cc(F)c(C(=O)N[C@@H]2CNCC[C@H]2c2ccc(F)c(F)c2)c(F)c1
IC50 (KHOS/NP [1]): 4.46 µM | IC50 [2]: 0.0971 µM | IC50 (786-0 [3]): 4.28 µM | IC50 (HGC-27): 4.86 µM

The next lines start with results.

IC50 [2]: 0.0027 µM | IC50 (786-0 [3]): 0.95 µM
Structure (SMILES): Cn1nccc1-c1ccc(C(=O)N[C@@H]2CNCC[C@H]2c2ccc(F)c(F)c2)cc1F
IC50 (KHOS/NP [1]): 7.43 µM | inhibition at 3 µM (hERG (KCNH2)): 10.7% | IC50 (HGC-27): 0.18 µM

IC50 (U-251): 14.2 µM | IC50 (U-87 MG): 50.6 µM | IC50 (786-0 [7]): 23.3 µM | IC50 (SK-OV-3): 6.32 µM | IC50 (HT-29): 36.9 µM | IC50 (NCI-H1975): 8.23 µM | IC50 (LNCaP): 0.46 µM | IC50 (MDA-MB-231): 60.5 µM | IC50 (PC-3): 82.6 µM | IC50 (SMMC-7721): 84.1 µM | IC50 (Bel-7402): 49.6 µM | IC50 (A549): 23.7 µM | IC50 (OVCAR-8): 4.48 µM | IC50 (HepG2): 6.7 µM
Structure (SMILES): NC1(C(=O)N[C@@H](CCO)c2ccc(Cl)cc2)CCN(c2nc[nH]c3nccc2-3)CC1 [CAPIVASERTIB]
Activity (HaCaT [4]): 47.55% | Activity (HaCaT [5]): 6.23% | Activity (HaCaT [6]): 25.71% | viability at 9 µM (HaCaT [8]): 44% | Activity (HaCaT [9]): 5.98% | Activity (HaCaT [10]): 46.52% | IC50 [11]: 2.32 µM | viability at 9 µM (HaCaT [12]): 70.3% | Activity (HaCaT [13]): 1.34% | viability at 9 µM (HaCaT [14]): 46% | Activity (HaCaT [15]): 3.15% | Activity (HaCaT [16]): 0.79% | IC50 (KHOS/NP [17]): 40.4 µM | IC50 (OS-RC-2): 53.4 µM | Activity (HaCaT [18]): 1.27% | viability at 9 µM (HaCaT [19]): 44.7% | IC50 (HaCaT [20]): 4.2 µM | IC50 (769-P): 10.8 µM | inhibition in vivo at 50 mg/kg (786-0 [21]): 47.1% | Activity (HaCaT [22]): 7.13% | Activity (HaCaT [23]): 47.84% | Activity (HaCaT [24]): 1.44% | inhibition in vivo at 50 mg/kg (KHOS/NP [25]): 33.9% | Activity (HaCaT [26]): Active

IC50 [2]: 0.0018 µM | IC50 (786-0 [3]): 1.01 µM
Structure (SMILES): Cn1nccc1-c1ccc(C(=O)N[C@@H]2CNCC[C@H]2c2cc(F)cc(F)c2)cc1F
IC50 (KHOS/NP [1]): 7.27 µM | inhibition at 3 µM (hERG (KCNH2)): 26.4% | IC50 (HGC-27): 0.15 µM
